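Compound exposure: 48 hours, 5 concentrations, 96-well plates. TGI marks complete inhibition of growth.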
Key:
Assay in all cases: inhibition of tumour cell growth, NCI panel, 48 h
[1] = test system: CAKI-1 renal
[2] = test system: SN12C renal
[3] = test system: OVCAR-8 ovarian
[4] = test system: IGROV1 ovarian
[5] = test system: OVCAR-5 ovarian
[6] = test system: HCT-116 colon
[7] = test system: M14 melanoma
[8] = test system: SK-MEL-28 melanoma
[9] = test system: PC-3 prostate
[10] = test system: A549 NSCLC
[11] = test system: A498 renal
[12] = test system: KM12 colon
[13] = test system: NCI-H23 lung
[14] = test system: MCF7 breast
[15] = test system: HT29 colon
[16] = test system: DU-145 prostate
[17] = test system: NCI/ADR-RES ovarian
[18] = test system: CCRF-CEM leukemia
[19] = test system: UO-31 renal
[20] = test system: MALME-3M melanoma
[21] = test system: OVCAR-4 ovarian
[22] = test system: MDA-MB-231 breast
[23] = test system: NCI-H460 lung
[24] = test system: SR leukemia
[25] = test system: RPMI-8226 leukemia
[26] = test system: HS 578T breast
[27] = test system: 786-0 renal
[28] = test system: SF-268 CNS
[29] = test system: SNB-75 CNS
[30] = test system: MDA-N
[31] = test system: SW-620 colon
[32] = test system: HOP-92 NSCLC
[33] = test system: SF-539 CNS
[34] = test system: SNB-19 CNS
[35] = test system: LOX IMVI melanoma
[36] = test system: UACC-62 melanoma
[37] = test system: MDA-MB-435
[38] = test system: SK-MEL-5 melanoma
[39] = test system: EKVX NSCLC
[40] = test system: HCT-15 colon
[41] = test system: BT-549 breast
[42] = test system: SK-MEL-2 melanoma
[43] = test system: TK-10 renal
[44] = test system: OVCAR-3 ovarian
[45] = test system: HOP-62 NSCLC
[46] = test system: T-47D breast
[47] = test system: HL-60(TB) leukemia
[48] = test system: NCI-H522 lung
[49] = test system: MOLT-4 leukemia
[50] = test system: COLO 205 colon
[51] = test system: SF-295 CNS
[52] = test system: HCC-2998 colon
[53] = test system: UACC-257 melanoma
[54] = test system: U251 CNS
[55] = test system: ACHN renal
[56] = test system: NCI-H226 lung
[57] = test system: K-562 leukemia
[58] = test system: RXF 393 renal
[59] = test system: SK-OV-3 ovarian

COC(=O)C1CCN(C(=O)OC(C)(C)C)CC1
TGI [1]: > 100 µM
TGI [2]: > 100 µM
TGI [3]: > 100 µM
TGI [4]: > 100 µM
TGI [5]: > 100 µM
TGI [6]: > 100 µM
TGI [7]: > 100 µM
TGI [8]: > 100 µM
TGI [9]: > 100 µM
TGI [10]: > 100 µM
TGI [11]: > 100 µM
TGI [12]: > 100 µM
TGI [13]: > 100 µM
TGI [14]: > 100 µM
TGI [15]: > 100 µM
TGI [16]: > 100 µM
TGI [17]: > 100 µM
TGI [18]: > 100 µM
TGI [19]: > 100 µM
TGI [20]: > 100 µM
TGI [21]: > 100 µM
TGI [22]: > 100 µM
TGI [23]: > 100 µM
TGI [24]: > 100 µM
TGI [25]: > 100 µM
TGI [26]: > 100 µM
TGI [27]: > 100 µM
TGI [28]: > 100 µM
TGI [29]: > 100 µM
TGI [30]: > 100 µM
TGI [31]: > 100 µM
TGI [32]: > 100 µM
TGI [33]: > 100 µM
TGI [34]: > 100 µM
TGI [35]: > 100 µM
TGI [36]: > 100 µM
TGI [37]: > 100 µM
TGI [38]: > 100 µM
TGI [39]: > 100 µM
TGI [40]: > 100 µM
TGI [41]: > 100 µM
TGI [42]: > 100 µM
TGI [43]: > 100 µM
TGI [44]: > 100 µM
TGI [45]: > 100 µM
TGI [46]: > 100 µM
TGI [47]: > 100 µM
TGI [48]: > 100 µM
TGI [49]: > 100 µM
TGI [50]: > 100 µM
TGI [51]: > 100 µM
TGI [52]: > 100 µM
TGI [53]: > 100 µM
TGI [54]: > 100 µM
TGI [55]: > 100 µM

COC1CCON1C(=O)c1ccccc1 (stereo unspecified)
TGI [1]: > 10 µM
TGI [2]: > 10 µM
TGI [3]: > 10 µM
TGI [4]: > 10 µM
TGI [5]: > 10 µM
TGI [6]: > 10 µM
TGI [7]: > 10 µM
TGI [8]: > 10 µM
TGI [9]: > 10 µM
TGI [10]: > 10 µM
TGI [13]: > 10 µM
TGI [14]: > 10 µM
TGI [56]: > 10 µM
TGI [15]: > 10 µM
TGI [16]: > 10 µM
TGI [57]: > 10 µM
TGI [17]: > 10 µM
TGI [18]: > 10 µM
TGI [19]: > 10 µM
TGI [20]: > 10 µM
TGI [21]: > 10 µM
TGI [22]: > 10 µM
TGI [23]: > 10 µM
TGI [24]: > 10 µM
TGI [25]: > 10 µM
TGI [26]: > 10 µM
TGI [27]: > 10 µM
TGI [28]: > 10 µM
TGI [29]: > 10 µM
TGI [30]: > 10 µM
TGI [31]: > 10 µM
TGI [33]: > 10 µM
TGI [34]: > 10 µM
TGI [35]: > 10 µM
TGI [58]: > 10 µM
TGI [37]: > 10 µM
TGI [38]: > 10 µM
TGI [39]: > 10 µM
TGI [40]: > 10 µM
TGI [41]: > 10 µM
TGI [42]: > 10 µM
TGI [43]: > 10 µM
TGI [59]: > 10 µM
TGI [44]: > 10 µM
TGI [45]: > 10 µM
TGI [46]: > 10 µM
TGI [47]: > 10 µM
TGI [48]: > 10 µM
TGI [49]: > 10 µM
TGI [50]: > 10 µM
TGI [51]: > 10 µM
TGI [52]: > 10 µM
TGI [53]: > 10 µM
TGI [55]: > 10 µM

CC(C)N1CCN(c2ccncc2S(=O)(=O)N2CCCCC2)CC1
TGI [1]: > 100 µM
TGI [2]: > 100 µM
TGI [3]: > 100 µM
TGI [4]: > 100 µM
TGI [5]: > 100 µM
TGI [6]: > 100 µM
TGI [7]: > 100 µM
TGI [8]: > 100 µM
TGI [9]: > 100 µM
TGI [10]: > 100 µM
TGI [11]: > 100 µM
TGI [12]: > 100 µM
TGI [13]: > 100 µM
TGI [14]: > 100 µM
TGI [56]: > 100 µM
TGI [15]: > 100 µM
TGI [16]: > 100 µM
TGI [57]: > 100 µM
TGI [17]: > 100 µM
TGI [19]: > 100 µM
TGI [20]: > 100 µM
TGI [21]: > 100 µM
TGI [22]: > 100 µM
TGI [23]: > 100 µM
TGI [24]: > 100 µM
TGI [25]: > 100 µM
TGI [26]: > 100 µM
TGI [27]: > 100 µM
TGI [28]: > 100 µM
TGI [29]: > 100 µM
TGI [30]: > 100 µM
TGI [31]: > 100 µM
TGI [32]: > 100 µM
TGI [33]: > 100 µM
TGI [34]: > 100 µM
TGI [35]: > 100 µM
TGI [58]: > 100 µM
TGI [36]: > 100 µM
TGI [37]: > 100 µM
TGI [38]: > 100 µM
TGI [39]: > 100 µM
TGI [40]: > 100 µM
TGI [41]: > 100 µM
TGI [42]: > 100 µM
TGI [43]: > 100 µM
TGI [59]: > 100 µM
TGI [44]: > 100 µM
TGI [45]: > 100 µM
TGI [46]: > 100 µM
TGI [47]: > 100 µM
TGI [48]: > 100 µM
TGI [50]: > 100 µM
TGI [51]: > 100 µM
TGI [52]: > 100 µM
TGI [53]: > 100 µM
TGI [54]: > 100 µM
TGI [55]: > 100 µM

CCc1c2c(cc3c1CC1(C3)Cc3cc4c(c(C(=O)OC)c3C1)CCCC4)CCCC2 (stereo unspecified)
TGI [2]: > 100 µM
TGI [3]: > 100 µM
TGI [4]: > 100 µM
TGI [5]: > 100 µM
TGI [6]: 65.1 µM
TGI [7]: > 100 µM
TGI [9]: > 100 µM
TGI [10]: > 100 µM
TGI [11]: > 100 µM
TGI [12]: > 100 µM
TGI [13]: > 100 µM
TGI [14]: > 100 µM
TGI [56]: > 100 µM
TGI [15]: > 100 µM
TGI [57]: > 100 µM
TGI [17]: > 100 µM
TGI [18]: > 100 µM
TGI [19]: > 100 µM
TGI [20]: > 100 µM
TGI [21]: > 100 µM
TGI [22]: > 100 µM
TGI [24]: > 100 µM
TGI [25]: > 100 µM
TGI [26]: 46.6 µM
TGI [27]: > 100 µM
TGI [30]: > 100 µM
TGI [32]: > 100 µM
TGI [33]: > 100 µM
TGI [35]: > 100 µM
TGI [58]: > 100 µM
TGI [36]: 35.1 µM
TGI [37]: > 100 µM
TGI [38]: > 100 µM
TGI [39]: 83.9 µM
TGI [40]: > 100 µM
TGI [42]: > 100 µM
TGI [43]: > 100 µM
TGI [59]: > 100 µM
TGI [44]: > 100 µM
TGI [45]: > 100 µM
TGI [46]: > 100 µM
TGI [47]: > 100 µM
TGI [48]: > 100 µM
TGI [49]: > 100 µM
TGI [50]: > 100 µM
TGI [51]: > 100 µM
TGI [52]: > 100 µM
TGI [53]: > 100 µM
TGI [54]: > 100 µM
TGI [55]: > 100 µM
